Measurements published in ChEMBL document CHEMBL1126719, “The solution conformation of (D)Phe-Pro-containing peptides: implications on the activity of Ac-(D)Phe-Pro-boroArg-OH, a potent thrombin inhibitor” (J Med Chem, 1993).

Target: Prothrombin (Homo sapiens, UniProt P00734)
Assay: Inhibition constant for binding with thrombin was determined

| SMILES | Ki [nM] |
| --- | --- |
| CC(=O)NCC(=O)NC(CCCN=C(N)N)B(O)O (stereo not given) | 26 |
| CC(=O)N[C@H](Cc1ccccc1)C(=O)NCC(=O)NC(CCCN=C(N)N)B(O)O (stereo not given in full) | 4.3 |
| CC(=O)N1CCC[C@H]1C(=O)NC(CCCN=C(N)N)B(O)O (stereo not given in full) | 3.3 |

Compounds with a lower Ki, results first:

| Ki [nM] | SMILES |
| --- | --- |
| 0.4 | CC(C)(C)OC(=O)N[C@H](Cc1ccccc1)C(=O)NCC(=O)NC(CCCN=C(N)N)B(O)O (stereo not given in full) |
| 0.004 | CC(C)(C)OC(=O)N[C@H](Cc1ccccc1)C(=O)N1CCC[C@H]1C(=O)NC(CCCN=C(N)N)B(O)O (stereo not given in full) |
